The supplement of paper PMC10331698
± gives the standard deviation of the averaged measurements.

Assays:
Assay in all cases: level (log10 ratio to DMSO vehicle control); higher = higher biomarker level / cell amount than vehicle control
Settings in all cases: in DMSO
[1] = compound: COC(=O)CCC(F)(F)C(F)(F)C(F)(F)C(F)(F)F [Methyl 2H,2H,3H,3H-perfluoroheptanoate]
Method: (§1)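 BioMAP Diversity Plus panel of 12 human primary cell co-culture systems (3C, 4H, LPS, SAg, BT, BF4T, BE3C, CASM3C, HDF3CGF, KF3CT, MyoF, Mphg). Compounds were added 1 h before stimulation and left for 24 h (MyoF 48 h; BT 72 h for soluble read-outs or 6 d for IgG). Biomarkers were read by ELISA, cytotoxicity by SRB, PBMC viability and proliferation by Alamar Blue. Each well value was divided by the mean of 8 DMSO control wells on the same plate and log10 transformed; duplicate blinded samples were tested at 4 concentrations.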

Perfluoro-1-iodohexane = compound: FC(F)(F)C(F)(F)C(F)(F)C(F)(F)C(F)(F)C(F)(F)I [Perfluoro-1-iodohexane]
Method: as §1

[2] = compound: FC(F)(F)C(F)(F)C(F)(F)C(F)(F)C(F)(F)CCI [1-Iodo-1H,1H,2H,2H-perfluoroheptane]
Method: as §1

Heptafluorobutyramide = compound: NC(=O)C(F)(F)C(F)(F)C(F)(F)F [Heptafluorobutyramide]
Method: as §1

[3] = compound: NCC(F)(F)C(F)(F)C(F)(F)C(F)(F)C(F)(F)C(F)(F)C(F)(F)F [1H,1H-Perfluorooctylamine]
Method: as §1

[4] = compound: O=C(O)C(F)(F)OC(F)(F)C(F)(F)OC(F)(F)F [Perfluoro-3,6-dioxaheptanoic acid]
Method: as §1

Row | Test System | level (log10) ([1]; 6700 nM) | level (log10) ([1]; 20000 nM) | level (log10) ([1]; 60000 nM) | level (log10) (Perfluoro-1-iodohexane; 6700 nM) | level (log10) (Perfluoro-1-iodohexane; 20000 nM) | level (log10) (Perfluoro-1-iodohexane; 60000 nM) | level (log10) ([2]; 6700 nM) | level (log10) ([2]; 20000 nM) | level (log10) ([2]; 60000 nM) | level (log10) (Heptafluorobutyramide; 6700 nM) | level (log10) (Heptafluorobutyramide; 20000 nM) | level (log10) (Heptafluorobutyramide; 60000 nM) | level (log10) ([3]; 6700 nM) | level (log10) ([3]; 20000 nM) | level (log10) ([3]; 60000 nM) | level (log10) ([4]; 6700 nM) | level (log10) ([4]; 20000 nM) | level (log10) ([4]; 60000 nM)
1 | BE3C:CXCL9/MIG | -0.0025 ± 0.016 | -0.007 ± 0.0014 | -0.0095 ± 0.00071 | 0.0085 ± 0.0035 | -0.002 ± 0.0071 | -0.0035 ± 0.018 | -0.001 ± 0.0014 | -0.008 ± 0.0042 | -0.008 ± 0.013 | 0.002 ± 0.0014 | 0.0015 ± 0.0092 | -0.006 ± 0.0028 | -0.0095 ± 0.011 | 0.0035 ± 0.022 | 0.0005 ± 0.0021 | -0.016 ± 0.0014 | -0.003 ± 0.021 | 0.0025 ± 0.0035
2 | BE3C:CXCL10/IP-10 | -0.001 ± 0.013 | -0.004 ± 0.0057 | -0.006 ± 0.0099 | 0.013 ± 0.018 | 0.0135 ± 0.0078 | 0.0355 ± 0.022 | 0.018 ± 0.052 | 0.022 ± 0.033 | 0.004 ± 0.052 | -0.0025 ± 0.00071 | -0.0175 ± 0.012 | 0.0075 ± 0.018 | 0.004 ± 0.0014 | -0.0025 ± 0.0035 | 0.002 ± 0.0085 | -0.03 ± 0.016 | -0.0115 ± 0.018 | -0.0095 ± 0.0078
3 | BE3C:CXCL11/I-TAC | -0.0175 ± 0.012 | -0.011 ± 0.018 | -0.0095 ± 0.00071 | -0.0005 ± 0.0021 | 0.002 ± 0.0057 | 0.0175 ± 0.0092 | 0.0075 ± 0.013 | 0.0005 ± 0.016 | 0.0005 ± 0.018 | -0.0035 ± 0.0064 | 0.005 ± 0.0042 | -0.0015 ± 0.00071 | 0.0105 ± 0.005 | -0.012 ± 0.011 | -0.0105 ± 0.005 | 0.011 ± 0.023 | 0.008 ± 0.0014 | 0.012 ± 0.02
4 | BE3C:EGFR | -0.029 ± 0.021 | 0.008 ± 0.0042 | -0.022 ± 0.0071 | 0.0095 ± 0.00071 | -0.0055 ± 0.0021 | 0.0285 ± 0.013 | 0.0195 ± 0.0078 | 0.0085 ± 0.019 | 0.009 ± 0.028 | -0.008 ± 0.0028 | -0.017 ± 0.011 | 0.004 ± 0.021 | -0.005 ± 0.0099 | -0.018 ± 0.0057 | 0.003 ± 0.0014 | -0.0185 ± 0.012 | 0.003 ± 0.021 | 0.007 ± 0.02
5 | BE3C:HLA-DR | -0.016 | 0.004 ± 0.0028 | -0.0235 ± 0.03 | -0.003 ± 0.0028 | 0.003 ± 0.0057 | -0.009 ± 0.0028 | -0.0055 ± 0.0035 | -0.0105 ± 0.0035 | -0.0215 ± 0.0078 | -0.0065 ± 0.005 | 0.0245 ± 0.012 | -0.009 ± 0.0099 | -0.001 | -0.0145 ± 0.011 | -0.0065 ± 0.0092 | -0.0205 ± 0.054 | -0.01 ± 0.035 | -0.0225 ± 0.056
6 | BE3C:IL-1alpha | 0.014 ± 0.023 | -0.002 ± 0.013 | 0.025 ± 0.047 | -0.0155 ± 0.013 | -0.009 ± 0.0014 | -0.0195 ± 0.013 | -0.0085 ± 0.016 | -0.005 ± 0.013 | -0.012 ± 0.0085 | -0.0085 ± 0.052 | 0.027 ± 0.037 | -0.004 ± 0.076 | -0.002 ± 0.0028 | -0.0285 ± 0.016 | -0.01 ± 0.0014 | -0.035 ± 0.04 | -0.0345 ± 0.032 | -0.0385 ± 0.046
7 | BF4T:CCL2/MCP-1 | -0.0105 ± 0.019 | -0.0245 ± 0.039 | -0.002 ± 0.0085 | -0.002 ± 0.025 | -0.024 ± 0.025 | -0.0315 ± 0.028 | -0.008 ± 0.025 | -0.044 ± 0.044 | -0.055 ± 0.02 | 0.008 ± 0.058 | -0.011 ± 0.04 | 0.014 ± 0.047 | 0.005 ± 0.02 | -0.013 ± 0.0071 | -0.009 ± 0.033 | -0.0235 ± 0.0021 | 0.002 ± 0.0071 | -0.0255 ± 0.023
8 | BF4T:CCL26/Eotaxin-3 | -0.0095 ± 0.005 | -0.0175 ± 0.0092 | -0.016 ± 0.0042 | 0.0255 ± 0.0035 | 0.0135 ± 0.015 | -0.0145 ± 0.059 | -0.0135 ± 0.012 | -0.0315 ± 0.0092 | -0.17 ± 0.021 | 0.0165 ± 0.022 | -0.0035 ± 0.0021 | 0.0045 ± 0.012 | 0.0175 ± 0.049 | -0.0085 ± 0.016 | 0.037 ± 0.037 | -0.039 ± 0.048 | -0.0195 ± 0.021 | -0.0615 ± 0.1
